According to patent US9023789B2, “Amylin analogs and pharmaceutical compositions thereof” (Novo Nordisk A/S, priority 2012, dated 2015):
Like-named read-outs stand apart in the source and are kept apart here. Numbered stars: 1 amine (or outer) side, 2 acyl side, 3 side chain; on linkers, the order of the positions; unused ones are H or OH. Bridge positions count the residues as written; N and C are the ends. Side chains are listed from the residue outwards. Peptide text beside a SMILES is read from it. * marks the point of attachment. C20 diacid = O=C(O)CCCCCCCCCCCCCCCCCCC(=O)*; γGlu = O=C(O)[C@H](CCC(=O)[*:2])N[*:1]

Tests used:
[1] = molecular target: T1, human amylin 3(a) receptor (human calcitonin receptor + RAMP-3) in BHK570 cells (Homo sapiens, UniProt O60896+P30988); assay: ASSAY (II)a functional assay, human amylin receptor (CRE luciferase); type: cell-based
T1 construct: expressed in transfected cells
Procedure, shortened: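 Ligand exposure 3 h at 37 °C, 5% CO2 in DMEM with 10% FBS, 10 mM Hepes pH 7.4. cAMP-driven luciferase read by luminescence after 30 min LucLite at room temperature.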

[2] = molecular target: T2, rat calcitonin receptor (Rattus norvegicus, UniProt P32214); assay: ASSAY (VIII) binding to the rat calcitonin receptor; settings: Table 7, read-out: rCTR bind IC50
T2 construct: expressed in transfected cells; host or cells: BHK tk'ts 13 (transient, FuGENE 6), membranes
T2 sequence (P32214 25-479 isoform P32214-2 limits assumed): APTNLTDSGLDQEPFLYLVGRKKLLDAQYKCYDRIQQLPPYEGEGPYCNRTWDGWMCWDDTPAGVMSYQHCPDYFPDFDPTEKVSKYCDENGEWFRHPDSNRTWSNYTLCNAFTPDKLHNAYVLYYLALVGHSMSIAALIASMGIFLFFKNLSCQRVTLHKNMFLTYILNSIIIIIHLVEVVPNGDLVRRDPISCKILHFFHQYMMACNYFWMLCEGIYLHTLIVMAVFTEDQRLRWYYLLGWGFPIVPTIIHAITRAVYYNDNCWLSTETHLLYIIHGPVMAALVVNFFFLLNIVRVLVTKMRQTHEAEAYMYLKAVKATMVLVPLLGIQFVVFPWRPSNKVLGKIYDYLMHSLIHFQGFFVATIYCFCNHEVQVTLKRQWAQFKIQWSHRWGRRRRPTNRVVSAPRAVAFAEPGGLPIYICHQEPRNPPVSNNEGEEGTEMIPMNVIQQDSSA
Procedure, shortened: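 Transfect BHK tk′ts 13 cells transiently with rat calcitonin receptor, culture in DMEM containing 10% FBS, collect cells about 48 hours later, then prepare membranes.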

[3] = ASSAY (IV) determination of solubility; type: physicochemical
Procedure, shortened: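 Polypeptide stock in water ([…]) was mixed 1:1 with 100 mM buffers: glycylglycine at pH 3.0, 4.0, 5.0 and bistrispropane at pH 6.0, 6.5, 7.0, 7.5, 8.0. After 18 hours at room temperature, samples were centrifuged and polypeptide concentration measured by UPLC.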

[4] = molecular target: T3, rat amylin receptor (rat calcitonin receptor + rat RAMP 3) (Rattus norvegicus, UniProt P32214+Q9JJ73); assay: ASSAY (VI) binding to the rat amylin receptor; settings: for IC50: binding to rat amylin receptor, read-out: rAmylin-R bind IC50
T3 construct: expressed in transfected cells; host or cells: BHK tk'ts 13 (transient, FuGENE 6), membranes
T3 sequence (P32214 25-479 isoform P32214-2 limits assumed): T2 sequence (P32214 25-479 isoform P32214-2 limits assumed)
T3 sequence (Q9JJ73 23-147 partner): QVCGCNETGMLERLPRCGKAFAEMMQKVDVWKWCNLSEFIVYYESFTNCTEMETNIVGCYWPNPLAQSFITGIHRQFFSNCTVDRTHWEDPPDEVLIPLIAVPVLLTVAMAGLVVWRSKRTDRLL
Procedure, shortened: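 This assay measured binding to the rat amylin receptor. BHK tk′ts 13 cells were transiently transfected with the rat calcitonin receptor using FuGENE® 6 (Roche), following the manufacturer's recommendations. About 48 hours after transfection, the cells were harvested and membranes were prepared from them for the binding determination.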

[5] = molecular target: T4, human amylin receptor (membranes from Amylin 3(a)/CRE-luc cells) (Homo sapiens, UniProt O60896+P30988); assay: ASSAY (V) binding to the human amylin receptor (SPA, 125I-rat amylin);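 further: competition binding of cell membranes (35 ng/µL) mixed with SPA beads in 384-well plates at 40 µL total volume, read by scintillation counting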
T4 construct: expressed in transfected cells
T4 sequence (P30988 25-474): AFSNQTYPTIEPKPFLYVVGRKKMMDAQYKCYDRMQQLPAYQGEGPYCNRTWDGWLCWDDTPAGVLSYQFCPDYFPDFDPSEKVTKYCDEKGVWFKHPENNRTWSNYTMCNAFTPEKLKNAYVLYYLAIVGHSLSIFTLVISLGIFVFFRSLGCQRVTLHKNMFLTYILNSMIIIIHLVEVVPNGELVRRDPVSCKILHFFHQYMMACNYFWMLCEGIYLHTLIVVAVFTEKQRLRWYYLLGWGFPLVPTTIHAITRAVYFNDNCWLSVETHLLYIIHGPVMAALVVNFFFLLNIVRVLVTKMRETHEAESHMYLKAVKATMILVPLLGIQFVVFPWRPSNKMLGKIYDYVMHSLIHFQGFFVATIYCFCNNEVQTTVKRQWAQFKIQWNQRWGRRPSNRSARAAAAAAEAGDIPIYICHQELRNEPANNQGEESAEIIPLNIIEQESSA
T4 sequence (O60896 24-148 partner): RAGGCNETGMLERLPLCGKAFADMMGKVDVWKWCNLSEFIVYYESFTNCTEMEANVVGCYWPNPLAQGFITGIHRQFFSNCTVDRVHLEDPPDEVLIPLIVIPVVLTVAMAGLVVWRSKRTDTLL

[6] = hCTR funct. EC50 over hAmylin-R funct. EC50
[7] = human functional selectivity: hCTR funct. EC50 / hAmylin-R funct. EC50
[8] = bistrispropane buffer, pH 6.5, read-out: Solubility pH 6.5 Concentration
[9] = bistrispropane buffer, pH 7.5, read-out: Solubility pH 7.5 Concentration
[10] = bistrispropane buffer, pH 6.0, read-out: Solubility pH 6.0 Concentration
[11] = bistrispropane buffer, pH 7.0, read-out: Solubility pH 7.0 Concentration
[12] = bistrispropane buffer, pH 8.0, read-out: Solubility pH 8.0 Concentration
[13] = glycylglycine buffer, pH 4.0, read-out: Solubility pH 4.0 Concentration
[14] = glycylglycine buffer, pH 5.0, read-out: Solubility pH 5.0 Concentration
[15] = Table 7, rat binding selectivity, rCTR IC50 / rAmylin-R IC50
[16] = Table 7a (preferred compounds), rat binding selectivity, rCTR IC50 / rAmylin-R IC50
[17] = ratio of rCTR bind IC50 to rAmylin-R bind IC50
[18] = Table 5, selectivity, hCTR bind IC50 / hAmylin-R bind IC50
[19] = Table 5a, selectivity, hCTR bind IC50 / hAmylin-R bind IC50
[20] = Table 7, human binding selectivity, included for comparison
[21] = Table 7a (preferred compounds), human binding selectivity, included for comparison
[22] = ratio of human calcitonin receptor binding IC50 to human amylin receptor binding IC50

CC[C@H](C)[C@H](NC(=O)[C@H](C)NC(=O)CNC(=O)[C@H](Cc1ccccc1)NC(=O)[C@H](CC(N)=O)NC(=O)[C@@H]1CCCN1C(=O)[C@H](CO)NC(=O)[C@H](CO)NC(=O)[C@H](Cc1c[nH]cn1)NC(=O)[C@H](CCCNC(=N)N)NC(=O)[C@H](CC(C)C)NC(=O)[C@H](Cc1ccccc1)NC(=O)[C@H](CCC(=O)O)NC(=O)[C@H](C)NC(=O)[C@H](CC(C)C)NC(=O)[C@H](CCCNC(=N)N)NC(=O)[C@H](CCC(N)=O)NC(=O)[C@@H](NC(=O)[C@H](C)NC(=O)[C@@H]1CSSC[C@H](NC(=O)[C@@H](N)CCCCNC(=O)CC[C@H](NC(=O)CC[C@H](NC(=O)CCCCCCCCCCCCCCCCCCC(=O)O)C(=O)O)C(=O)O)C(=O)N[C@@H](CC(N)=O)C(=O)N[C@@H]([C@@H](C)O)C(=O)N[C@@H](C)C(=O)N[C@@H]([C@@H](C)O)C(=O)N1)[C@@H](C)O)C(=O)N[C@@H](CC(C)C)C(=O)N[C@@H](CO)C(=O)N[C@@H](CO)C(=O)N[C@H](C(=O)N1CCC[C@H]1C(=O)N[C@H](C(=O)NCC(=O)N1CCC[C@H]1C(=O)N[C@@H](CCC(=O)O)C(=O)N[C@H](C(=O)N[C@@H](Cc1ccc(O)cc1)C(N)=O)[C@@H](C)O)C(C)C)[C@@H](C)O [Example 121] (H-K([γGlu-γGlu-C20 diacid])CNTATCATQRLAEFLRHSSPNFGAILSSTPVGPETY-NH2; disulfide 2-7; N-terminus assumed)
Ratio hCT/hAmylin funct. [1, 6]: 5.8
Ratio hCT/hAmylin funct. [1, 7]: 5.8
IC50 [2]: 33.5 nM
solubility at 18 h [3, 8]: ≥ 200 µM
solubility at 18 h [3, 9]: ≥ 200 µM
solubility at 18 h [3, 10]: ≥ 200 µM
solubility at 18 h [3, 11]: ≥ 200 µM
solubility at 18 h [3, 12]: ≥ 200 µM
solubility at 18 h [3, 13]: ≥ 200 µM
solubility at 18 h [3, 14]: ≥ 200 µM
IC50 ([4]; Table 7): 0.449 nM
Ratio rCT/rAmylin binding [4, 15]: 74.7
Ratio rCT/rAmylin binding [4, 16]: 74.7
Ratio rCT/rAmylin binding [4, 17]: 74.7
Ratio hCT/hAmylin binding [5, 18]: 22.6
Ratio hCT/hAmylin binding [5, 19]: 22.6
Ratio hCT/hAmylin binding ([5]; Table 5b, selectivity, hCTR bind IC50 / hAmylin-R bind IC50): 22.6
Ratio hCT/hAmylin binding ([5]; Table 5c, selectivity, hCTR bind IC50 / hAmylin-R bind IC50): 22.6
Ratio hCT/hAmylin binding [5, 20]: 22.6
Ratio hCT/hAmylin binding [5, 21]: 22.6
Ratio hCT/hAmylin binding [5, 22]: 22.6

CC[C@H](C)[C@H](NC(=O)[C@H](C)NC(=O)CNC(=O)[C@H](Cc1ccccc1)NC(=O)[C@H](CC(N)=O)NC(=O)[C@@H]1CCCN1C(=O)[C@H](CO)NC(=O)[C@H](CO)NC(=O)[C@H](Cc1c[nH]cn1)NC(=O)[C@H](CCCNC(=N)N)NC(=O)[C@H](CC(C)C)NC(=O)[C@H](Cc1ccccc1)NC(=O)[C@H](CC(N)=O)NC(=O)[C@H](C)NC(=O)[C@H](CC(C)C)NC(=O)[C@H](CCCNC(=N)N)NC(=O)[C@H](CCC(N)=O)NC(=O)[C@@H](NC(=O)[C@H](C)NC(=O)[C@@H]1CSSC[C@H](NC(=O)[C@H](CCCCN)NC(=O)CC[C@H](NC(=O)CCCCCCCCCCCCCCCCCCC(=O)O)C(=O)O)C(=O)N[C@@H](CC(N)=O)C(=O)N[C@@H]([C@@H](C)O)C(=O)N[C@@H](C)C(=O)N[C@@H]([C@@H](C)O)C(=O)N1)[C@@H](C)O)C(=O)N1CCC[C@H]1C(=O)N[C@@H](CO)C(=O)N[C@@H](CO)C(=O)N[C@H](C(=O)N[C@@H](CC(N)=O)C(=O)N[C@H](C(=O)NCC(=O)N1CCC[C@H]1C(=O)N[C@@H](CCC(=O)O)C(=O)N[C@H](C(=O)N[C@@H](Cc1ccc(O)cc1)C(N)=O)[C@@H](C)O)C(C)C)[C@@H](C)O [Example 29] ({C20 diacid-γGlu}-KCNTATCATQRLANFLRHSSPNFGAIPSSTNVGPETY-NH2; disulfide 2-7)
Ratio hCT/hAmylin funct. ([1]; hCTR funct. EC50 divided by hAmylin-R funct. EC50): 8.7
Ratio hCT/hAmylin funct. [1, 6]: 8.7
Ratio hCT/hAmylin funct. [1, 7]: 8.7
IC50 [2]: 21.6 nM
solubility at 18 h [3, 8]: ≥ 200 µM
solubility at 18 h [3, 9]: ≥ 200 µM
solubility at 18 h [3, 10]: ≥ 200 µM
solubility at 18 h [3, 11]: ≥ 200 µM
solubility at 18 h [3, 12]: ≥ 200 µM
solubility at 18 h ([3]; glycylglycine buffer, pH 3.0, read-out: Solubility pH 3.0 Concentration): ≥ 200 µM
solubility at 18 h [3, 13]: ≥ 200 µM
solubility at 18 h [3, 14]: ≥ 200 µM
IC50 ([4]; Table 7): 0.322 nM
Ratio rCT/rAmylin binding [4, 15]: 67.0
Ratio rCT/rAmylin binding [4, 16]: 67.0
Ratio rCT/rAmylin binding [4, 17]: 67.0
Ratio hCT/hAmylin binding [5, 18]: 13.9
Ratio hCT/hAmylin binding [5, 19]: 13.9
Ratio hCT/hAmylin binding [5, 20]: 13.9
Ratio hCT/hAmylin binding [5, 21]: 13.9
Ratio hCT/hAmylin binding [5, 22]: 13.9
